Reference: patent US12241902B2, “Probes for detection of copper” (The Regents of the University of California, priority 2019, dated 2025)

Legend:
[1] = test system: labile Cu(I) in Ctr1^−/− MEFs; experiment: Confocal fluorescence imaging of labile Cu(I) in Ctr1-/- MEFs; format: cell-based, mouse
Experimental: (A) Confocal fluorescence microscopy images of Ctr1^+/+ MEFs and Ctr1^−/− MEFs treated with solvent control, CuCl2 (100 or 300 μM) or BCS (500 μM) in complete medium for 8 h, washed with complete medium and PBS, incubated with FCP-1 (5 μM) in DPBS for 45 min, and then imaged with λex=458 nm. (B) Average cellular ratiometric emission ratios of FCP-1, Fgreen/Forange, as determined from experiments performed in triplicate. (C) Total cellular ^63Cu levels were determined by ICP-MS experiments (with normalization of different cell numbers by total cellular ^31P level). (D) Confocal fluorescence microscopy images of Ctr1^+/+ MEFs and Ctr1^−/− MEFs incubated with FL-TPA (5 μM) in DPBS for 45 min. The cells were then imaged with λex=488 nm. (E) Average cellular fluorescence intensity of FL-TPA, FFL-TPA, determined from experiments performed in triplicate with λex=488 nm. Error bars denote SD (n=3). *p<0.05, **p<0.01 and ***p<0.001.
Cell culture. Following cell cultures were grown: Human embryonic kidney (HEK 293T) cells were maintained in Dulbecco's Modified Eagle Medium (DMEM) supplemented with 10 vol % fetal bovine serum (FBS), 1 vol % GlutaMax (Gibco) and 1 vol % non-essential amino acids (NEAA, Gibco). Ctrl1^+/+ and Ctr1^−/− MEF cells were maintained in DMEM with 10 vol % FBS, 1 vol % non-essential amino acids, 1 vol % sodium pyruvate and 0.1 vol % 2-mercaptoethanol or DMEM supplemented with 10 vol % FBS and 1× Penicillin-Streptomycin. Human cervical epithelial carcinoma (HeLa) was maintained in DMEM medium supplemented with 1 vol % GlutaMAX and 10 vol % FBS. […]
(§1) Confocal fluorescence microscopy imaging. For confocal fluorescence imaging experiments of HEK293T, MEF Ctr1^+/+ and Ctr1^−/− and HeLa cells, the cells were plated on 8-well Lab Tek borosilicate chambered coverglass slides (Nunc), and allowed to grow to ca. 60% confluency before performing the cell imaging experiments. […] For quantification, a threshold value was set as background and the average intensity of the whole image was measured by ImageJ. […]

[2] = test system: labile Cu(I) pools in HeLa cells; experiment: Ratiometric confocal fluorescence imaging of labile Cu(I) in HeLa cells under redox stress; format: cell-based, Human; conditions: FCP-1 5 μM
Experimental: Confocal fluorescence microscopy images of HeLa cells pretreated with (A) solvent control, CuCl2 (200 or 300 μM), or BCS (100 μM) in complete medium for 18 h, or (B) solvent control, ascorbate (1 mM), or BSO (1 mM) in complete medium for 4 h. The cells were then washed with PBS, incubated with FCP-1 (5 μM) in DPBS for 45 min and imaged with λex=458 nm. The bar charts show average cellular ratiometric FCP-1 emission, Fgreen/Forange, determined from experiments performed in triplicate. (C) Total cellular ^63Cu levels were determined by ICP-MS experiments (with normalization of different cell numbers by total cellular ^31P level). […]
as §1
In view of the oxidation state-specificity of FCP-1 toward Cu(I), the impact of cellular redox status on labile Cu(I) pools was examined First, the ability of FCP-1 to detect changes in labile Cu(I) levels in HeLa cells with CuCl2 and BCS treatments was evaluated (FIG. 16A). […]

## CC[N+](CC)=c1ccc2c(-c3ccccc3C(=O)O)c3ccc(N4CCN(Cc5cccc(CN(Cc6ccccn6)Cc6cccc(COc7ccc8c(-c9ccccc9C(=O)OC)c9ccc(=O)cc-9oc8c7)n6)n5)CC4)cc3oc-2c1 [FCP-1]
[1]; Ctr1−/− MEFs (FIG. 14)
  cellular viability by nuclear stain DRAQ5: cellular viability was maintained
[1]; Ctr1−/− MEFs incubated with CuCl2
  Fgreen/Forange ratio after CuCl2: no statistically significant changes
[1]; Ctr1−/− MEFs, BCS (500 μM)
  Fgreen/Forange ratio after BCS: reduction in Fgreen/Forange ratio
[2]; BSO 1 mM 4 h
  Fgreen/Forange ratio in BSO-treated cells compared to control: higher
[2]; ascorbate 1 mM 4 h
  Fgreen/Forange ratio in ascorbate-treated cells compared to control: statistically significant increase
